Experimental data reported in patent publication EP4563146A1 (IRBM S.P.A., priority 2023, dated 2025).
Read-outs that look alike come from different tables or passages of the source.

Legend:
[1] = biological target: T1, West Nile Virus (WNV) NS2B-NS3 protease (West Nile virus, UniProt Q9Q6P4); experiment: WNV protease inhibition assay; assay type: biochemical; settings: Table 4; letter codes for IC50
T1 construct: NS2B1423-1470); purchased R&D 2907-SE-020
Source text: WNV protease inhibition assay

ZIKV replicon = experiment: ZIKV replication inhibition assay (NanoLuc replicon in Vero cells); settings: Zika virus, Vero, 72 h
[2] = read-out: ZIKA Cell_Nanoluc, Vero cells with stable ZIKV replicon, 72 h, Nano-Glo readout

T1 sequence (Q9Q6P4 1423-1470): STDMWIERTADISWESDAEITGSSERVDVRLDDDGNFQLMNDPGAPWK
T1 sequence (Q9Q6P4 1506-1689): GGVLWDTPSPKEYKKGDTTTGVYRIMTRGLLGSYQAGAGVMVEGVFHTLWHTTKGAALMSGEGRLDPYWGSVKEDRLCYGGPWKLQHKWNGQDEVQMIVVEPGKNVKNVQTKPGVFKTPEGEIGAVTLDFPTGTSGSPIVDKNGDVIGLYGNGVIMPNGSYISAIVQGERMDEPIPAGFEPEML

Row | SMILES | IC50 [1] | EC50 (ZIKV replicon; read-out: ZIKA Cell_Nanoluc) | EC50 (ZIKV replicon; [2])
1 | CN(C)C[C@H]1CC[C@H]([n+]2cc([N-]C(=O)Nc3cc(NC(=O)C4CCCc5ccccc54)cc(C(F)(F)F)c3)on2)CC1 (stereo partly drawn) [Example 177, (3-((1R,4R)-4-((Dimethylamino)methyl)-cyclohexyl)-1,2,3-oxadiazol-3-ium-5-yl)((3-(1,2,3,4-tetrahydronaphthalene-1-carboxamido)-5-(trifluoromethyl)phenyl)carbamoyl)amide] | 0.1 to 1 µM | 1 to 20 µM | 
2 | Cc1ccccc1CC(=O)Nc1cc(NC(=O)[N-]c2c[n+]([C@@H]3CCC[C@H](C(=O)N(C)C)C3)no2)cc(C(F)(F)F)c1 (racemic) [Example 253, rac-(3-((1R,3S)-3-(Dimethylcarbamoyl)-cyclohexyl)-1,2,3-oxadiazol-3-ium-5-yl)((3-(2-(o-tolyl)-acetamido)-5-(trifluoromethyl)phenyl)-carbamoyl)amide] | 0.1 to 1 µM |  | 1 to 20 µM
3 | O=C(Cc1ccccc1)Nc1cc(NC(=O)[N-]c2c[n+](Cc3cccc(CN4C(=O)c5ccccc5C4=O)c3)no2)cc(C(F)(F)F)c1 [Example 107, (3-(3-((1,3-Dioxoisoindolin-2-yl)methyl)benzyl)-1,2,3-oxadiazol-3-ium-5-yl)((3-(2-phenylacetamido)-5-(trifluoromethyl)phenyl)carbamoyl)amide] |  |  | 1 to 20 µM
4 | Cn1cncc1-c1ccc(C[n+]2cc([N-]C(=O)Nc3cc(NC(=O)Cc4ccccc4)cc(C(F)(F)F)c3)on2)nc1 [Example 6, (3-((5-(1-Methyl-1H-imidazol-5-yl)pyridin-2-yl)methyl)-1,2,3-oxadiazol-3-ium-5-yl)((3-(2-phenylacetamido)-5-(trifluoromethyl)phenyl)carbamoyl)amide] |  |  | 1 to 20 µM
5 | O=C(Cc1ccccc1)Nc1cc(NC(=O)[N-]c2c[n+](Cc3ccc(-c4cccc5c4CNC5)cn3)no2)cc(C(F)(F)F)c1 [Example 14, (3-((5-(Isoindolin-4-yl)pyridin-2-yl)methyl)-1,2,3-oxadiazol-3-ium-5-yl)((3-(2-phenylacetamido)-5-(trifluoromethyl)phenyl)carbamoyl)amide] |  |  | 1 to 20 µM
6 | C[n+]1cc([N-]C(=O)Nc2cc(NC(=O)Cc3ccccc3)cc(C(F)(F)F)c2)on1 [Example 4, (3-Methyl-1,2,3-oxadiazol-3-ium-5-yl)((3-(2-phenylacetamido)-5-(trifluoromethyl)phenyl)carbamoyl)amide] |  |  | 1 to 20 µM
7 | O=C([N-]c1c[n+](Cc2ccccn2)no1)Nc1cc(NC(=O)C23CC(C(=O)O)(C2)C3)cc(C(F)(F)F)c1 [Example 52, ((3-(3-Carboxybicyclo[1.1.1]pentane-1-carboxamido)-5-(trifluoromethyl)phenyl)-carbamoyl)(3-(pyridin-2-ylmethyl)-1,2,3-oxadiazol-3-ium-5-yl)amide] |  |  | 1 to 20 µM
8 | CN1CCCCC1C[n+]1cc([N-]C(=O)Nc2cc(NC(=O)Cc3ccccc3)cc(C3CC3)c2)on1 (stereo not shown) [Example 127] |  | 1 to 20 µM | 
9 | O=C(CC1CC2CC1C2)Nc1cc(NC(=O)[N-]c2c[n+](Cc3ccccn3)no2)cc(C(F)(F)F)c1 (stereo not shown) [Example 63, ((3-(2-(Bicyclo[2.1.1]hexan-2-yl)acetamido)-5-(trifluoromethyl)phenyl)carbamoyl)(3-(pyridin-2-ylmethyl)-1,2,3-oxadiazol-3-ium-5-yl)amide] |  |  | 1 to 20 µM
10 | COc1ncc(-c2ccc(C[n+]3cc([N-]C(=O)Nc4cc(NC(=O)C5CCCC5)cc(C(F)(F)F)c4)on3)cc2)c(C)n1 [Example 18] |  | 0.1 to 1 µM | 
11 | O=C(CCCCS(=O)(=O)N1CCCCC1)Nc1cc(NC(=O)[N-]c2c[n+](Cc3ccccn3)no2)cc(C(F)(F)F)c1 [Example 82] |  | > 20 µM | 
12 | NCC12CC(C[n+]3cc([N-]C(=O)Nc4cc(NC(=O)Cc5ccccc5)cc(C(F)(F)F)c4)on3)(C1)C2 [Example 103] |  | > 20 µM | 
13 | O=C([N-]c1c[n+](Cc2ccccn2)no1)Nc1cc(NC(=O)c2[nH]cc3c2CCC3)cc(C(F)(F)F)c1 [Example 87, (3-(Pyridin-2-ylmethyl)-1,2,3-oxadiazol-3-ium-5-yl)((3-(2,4,5,6-tetrahydrocyclopenta[c]pyrrole-1-carboxamido)-5-(trifluoromethyl)phenyl)-carbamoyl)amide] |  |  | > 20 µM
14 | NC(=O)c1ccc(C[n+]2cc([N-]C(=O)Nc3cc(NC(=O)Cc4ccccc4)cc(C(F)(F)F)c3)on2)cc1 [Example 104, (3-(4-Carbamoylbenzyl)-1,2,3-oxadiazol-3-ium-5-yl)((3-(2-phenylacetamido)-5-(trifluoromethyl)phenyl)carbamoyl)amide] |  |  | 1 to 20 µM
15 | O=C(CCOC1CCCC1)Nc1cc(NC(=O)[N-]c2c[n+](Cc3ccccn3)no2)cc(C(F)(F)F)c1 [Example 73] |  | 1 to 20 µM | 
16 | C=CCOC(=O)C[n+]1cc([N-]C(=O)Nc2cc(NC(=O)Cc3ccccc3)cc(C(F)(F)F)c2)on1 [Example 97, (3-(2-(Allyloxy)-2-oxoethyl)-1,2,3-oxadiazol-3-ium-5-yl)((3-(2-phenylacetamido)-5-(trifluoromethyl)phenyl)carbamoyl)amide] |  |  | > 20 µM
17 | O=C(Cc1cccc2cn[nH]c12)Nc1cc(NC(=O)[N-]c2c[n+](Cc3ccccn3)no2)cc(C(F)(F)F)c1 [Example 126, ((3-(2-(1H-Indazol-7-yl)acetamido)-5-(trifluoromethyl)phenyl)carbamoyl)(3-(pyridin-2-ylmethyl)-1,2,3-oxadiazol-3-ium-5-yl)amide] |  |  | > 20 µM
18 | CN1CCC([n+]2cc([N-]C(=O)Nc3cc(NC(=O)Cc4ccccc4)cc(C(F)(F)F)c3)on2)CC1 [Example 100, (3-(1-Methylpiperidin-4-yl)-1,2,3-oxadiazol-3-ium-5-yl)((3-(2-phenylacetamido)-5-(trifluoromethyl)phenyl)carbamoyl)amide] |  |  | 1 to 20 µM
19 | O=C([N-]c1c[n+](C[C@H]2CC[C@@H](NCC(F)(F)F)CC2)no1)Nc1cc(N2CCC(c3ccccc3)C2=O)cc(C(F)(F)F)c1 (stereo partly shown) [Example 136, ((3-(2-Oxo-3-phenylpyrrolidin-1-yl)-5-(trifluoromethyl)phenyl)carbamoyl)(3-(((1s,4s)-4-((2,2,2-trifluoroethyl)amino)cyclohexyl)methyl)-1,2,3-oxadiazol-3-ium-5-yl)amide] |  | 0.1 to 1 µM | 
20 | O=C(CC1(N2CCCC2)COC1)Nc1cc(NC(=O)[N-]c2c[n+](Cc3ccccn3)no2)cc(C(F)(F)F)c1 [Example 86, (3-(Pyridin-2-ylmethyl)-1,2,3-oxadiazol-3-ium-5-yl)((3-(2-(3-(pyrrolidin-1-yl)oxetan-3-yl)acetamido)-5-(trifluoromethyl)phenyl)carbamoyl)amide] |  |  | 1 to 20 µM
21 | O=C(Cc1ccccc1)Nc1cc(NC(=O)[N-]c2c[n+](C3CCNCC3)no2)cc(C(F)(F)F)c1 [Example 99, ((3-(2-Phenylacetamido)-5-(trifluoromethyl)-phenyl)carbamoyl)(3-(piperidin-4-yl)-1,2,3-oxadiazol-3-ium-5-yl)amide] |  |  | 1 to 20 µM
22 | O=C([N-]c1c[n+](Cc2ccccn2)no1)Nc1cc(NC(=O)C(F)(F)CN2CCCC2)cc(C(F)(F)F)c1 [Example 76] |  | > 20 µM | 
23 | N[C@H]1CC[C@@H](C[n+]2cc([N-]C(=O)Nc3cc(N4CCC(c5ccccc5)C4=O)cc(C(F)(F)F)c3)on2)CC1 (stereo partly drawn) [Example 131, (3-(((1S,4S)-4-Aminocyclohexyl)methyl)-1,2,3-oxadiazol-3-ium-5-yl)((3-(2-oxo-3-phenylpyrrolidin-1-yl)-5-(trifluoromethyl)-phenyl)carbamoyl)amide] |  | 1 to 20 µM | 
